From ChEMBL document CHEMBL4507280 (2021)

Key:
[1] = target: Serine/threonine-protein kinase 38-like (Homo sapiens) (UniProt Q9Y2H1); conditions: Compound concentration 1000.0 nM
[2] = target: MAP/microtubule affinity-regulating kinase 3 (Homo sapiens) (UniProt P27448); conditions: Compound concentration 1000.0 nM
[3] = target: Microtubule-associated serine/threonine-protein kinase 1 (Homo sapiens) (UniProt Q9Y2H9); conditions: Compound concentration 1000.0 nM
[4] = target: Serine/threonine-protein kinase DCLK3 (Homo sapiens) (UniProt Q9C098); conditions: Compound concentration 1000.0 nM
Chain of Serine/threonine-protein kinase DCLK3 (Homo sapiens) (Q9C098 whole entry, canonical isoform): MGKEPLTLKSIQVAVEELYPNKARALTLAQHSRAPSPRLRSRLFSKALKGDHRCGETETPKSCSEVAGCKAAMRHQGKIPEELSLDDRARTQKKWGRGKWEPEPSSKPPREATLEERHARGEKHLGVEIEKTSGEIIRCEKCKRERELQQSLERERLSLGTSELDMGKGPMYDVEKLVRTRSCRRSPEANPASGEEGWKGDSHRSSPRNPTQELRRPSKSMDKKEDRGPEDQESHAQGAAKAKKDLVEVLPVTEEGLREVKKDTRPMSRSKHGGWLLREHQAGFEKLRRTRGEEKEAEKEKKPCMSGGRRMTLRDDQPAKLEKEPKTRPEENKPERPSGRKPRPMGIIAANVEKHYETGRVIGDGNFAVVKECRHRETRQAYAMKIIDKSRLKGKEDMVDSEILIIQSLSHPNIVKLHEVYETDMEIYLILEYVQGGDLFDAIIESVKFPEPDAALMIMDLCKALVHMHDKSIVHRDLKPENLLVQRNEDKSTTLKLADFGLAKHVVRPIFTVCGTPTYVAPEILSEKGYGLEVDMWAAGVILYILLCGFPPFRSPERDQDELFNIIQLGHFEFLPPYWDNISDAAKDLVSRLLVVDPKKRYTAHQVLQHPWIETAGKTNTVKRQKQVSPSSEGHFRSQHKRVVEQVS

[5] = target: Casein kinase I isoform gamma-1 (Homo sapiens) (UniProt Q9HCP0); conditions: Compound concentration 1000.0 nM
[6] = target: Serine/threonine-protein kinase Nek11 (Homo sapiens) (UniProt Q8NG66); conditions: Compound concentration 1000.0 nM
[7] = target: Serine/threonine-protein kinase tousled-like 2 (Homo sapiens) (UniProt Q86UE8); conditions: Compound concentration 1000.0 nM
[8] = target: D(1A) dopamine receptor (Homo sapiens) (UniProt P21728); conditions: Compound concentration 10.0 uM
Chain of D(1A) dopamine receptor (Homo sapiens) (P21728 whole entry): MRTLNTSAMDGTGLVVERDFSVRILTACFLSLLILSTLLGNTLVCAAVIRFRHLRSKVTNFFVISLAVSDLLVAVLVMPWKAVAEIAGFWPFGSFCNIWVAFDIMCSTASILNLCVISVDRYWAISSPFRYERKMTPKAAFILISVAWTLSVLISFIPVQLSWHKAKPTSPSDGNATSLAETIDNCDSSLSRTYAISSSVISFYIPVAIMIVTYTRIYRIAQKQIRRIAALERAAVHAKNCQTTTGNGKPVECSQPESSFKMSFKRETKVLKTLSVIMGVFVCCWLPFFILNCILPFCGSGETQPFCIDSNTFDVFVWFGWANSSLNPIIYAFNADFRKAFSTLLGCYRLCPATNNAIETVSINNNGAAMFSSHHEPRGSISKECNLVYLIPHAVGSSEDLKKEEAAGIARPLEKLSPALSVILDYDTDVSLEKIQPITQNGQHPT

[9] = target: GABA-A receptor; anion channel (Rattus norvegicus) (UniProt O09028+P15431+P18506+P18508+P19969+P20236+P23574+P23576+P28471+P28473+P30191+P62813+P63079+P63138+Q91ZM7+Q9ES14); conditions: Compound concentration 10.0 uM
[10] = target: Phosphatidylinositol 5-phosphate 4-kinase type-2 beta (Homo sapiens) (UniProt P78356); conditions: Compound concentration 1000.0 nM
[11] = target: Dual specificity protein kinase CLK1 (Homo sapiens) (UniProt P49759); conditions: Compound concentration 1000.0 nM
[12] = target: Ephrin type-A receptor 7 (Homo sapiens) (UniProt Q15375); conditions: Compound concentration 1000.0 nM
[13] = tested on: Phosphatidylinositol 4,5-bisphosphate 3-kinase catalytic subunit alpha isoform (Homo sapiens), P42336 [M1043I]; conditions: Compound concentration 1000.0 nM
[14] = target: T1, Alpha-1A adrenergic receptor (Homo sapiens) (UniProt P35348); conditions: Compound concentration 10.0 uM
T1 sequence (whole entry): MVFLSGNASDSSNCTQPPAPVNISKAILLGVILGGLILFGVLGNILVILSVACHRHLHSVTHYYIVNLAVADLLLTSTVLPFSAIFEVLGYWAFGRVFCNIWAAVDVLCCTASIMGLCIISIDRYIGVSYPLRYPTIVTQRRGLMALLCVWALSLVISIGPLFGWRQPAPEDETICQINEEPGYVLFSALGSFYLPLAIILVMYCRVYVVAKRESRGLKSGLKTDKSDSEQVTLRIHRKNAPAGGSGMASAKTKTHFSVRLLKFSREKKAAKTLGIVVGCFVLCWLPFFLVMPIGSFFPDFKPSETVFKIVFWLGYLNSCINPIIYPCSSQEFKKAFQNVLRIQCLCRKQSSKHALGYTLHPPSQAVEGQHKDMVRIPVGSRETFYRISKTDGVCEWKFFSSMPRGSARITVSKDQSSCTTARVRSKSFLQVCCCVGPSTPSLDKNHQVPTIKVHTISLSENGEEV

[15] = target: Casein kinase I isoform gamma-2 (Homo sapiens) (UniProt P78368); conditions: Compound concentration 1000.0 nM
Chain of Casein kinase I isoform gamma-2 (Homo sapiens) (P78368 whole entry, looked up, canonical isoform): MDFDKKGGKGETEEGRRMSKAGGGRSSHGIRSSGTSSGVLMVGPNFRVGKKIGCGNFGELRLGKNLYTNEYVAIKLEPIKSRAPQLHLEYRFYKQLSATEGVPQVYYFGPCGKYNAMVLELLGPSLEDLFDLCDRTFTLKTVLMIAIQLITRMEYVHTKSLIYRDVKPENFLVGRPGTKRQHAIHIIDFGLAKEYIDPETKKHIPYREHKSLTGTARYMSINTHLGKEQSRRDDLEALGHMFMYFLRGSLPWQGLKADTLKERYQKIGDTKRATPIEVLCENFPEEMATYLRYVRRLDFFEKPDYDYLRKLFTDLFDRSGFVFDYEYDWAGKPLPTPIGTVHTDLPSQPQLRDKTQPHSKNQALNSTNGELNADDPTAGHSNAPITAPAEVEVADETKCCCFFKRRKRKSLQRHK

[16] = target: SNF-related serine/threonine-protein kinase (Homo sapiens) (UniProt Q9NRH2); conditions: Compound concentration 1000.0 nM
[17] = target: Serine/threonine-protein kinase Sgk3 (Homo sapiens) (UniProt Q96BR1); conditions: Compound concentration 1000.0 nM
[18] = target: Histamine H3 receptor (Homo sapiens) (UniProt Q9Y5N1); conditions: Compound concentration 10.0 uM
[19] = target: Atypical kinase COQ8A, mitochondrial (Homo sapiens) (UniProt Q8NI60); conditions: Compound concentration 1000.0 nM
Chain of Atypical kinase COQ8A, mitochondrial (Homo sapiens) (Q8NI60 163-647 limits assumed): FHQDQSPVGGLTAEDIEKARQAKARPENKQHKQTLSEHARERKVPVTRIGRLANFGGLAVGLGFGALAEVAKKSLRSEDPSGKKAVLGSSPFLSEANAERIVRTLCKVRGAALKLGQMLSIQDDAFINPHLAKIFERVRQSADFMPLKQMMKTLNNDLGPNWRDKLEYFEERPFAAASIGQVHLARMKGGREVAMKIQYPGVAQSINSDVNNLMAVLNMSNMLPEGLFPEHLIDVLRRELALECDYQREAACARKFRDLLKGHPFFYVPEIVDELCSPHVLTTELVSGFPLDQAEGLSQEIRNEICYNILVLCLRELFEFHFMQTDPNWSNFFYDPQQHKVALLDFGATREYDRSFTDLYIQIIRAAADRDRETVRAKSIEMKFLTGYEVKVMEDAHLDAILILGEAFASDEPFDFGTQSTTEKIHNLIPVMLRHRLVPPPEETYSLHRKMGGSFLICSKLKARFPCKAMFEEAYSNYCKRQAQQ

[20] = target: Dual specificity mitogen-activated protein kinase kinase 3 (Homo sapiens) (UniProt P46734); conditions: Compound concentration 1000.0 nM
[21] = target: Cyclin-dependent kinase 3 (Homo sapiens) (UniProt Q00526); conditions: Compound concentration 1000.0 nM
Chain of Cyclin-dependent kinase 3 (Homo sapiens) (Q00526 whole entry, looked up): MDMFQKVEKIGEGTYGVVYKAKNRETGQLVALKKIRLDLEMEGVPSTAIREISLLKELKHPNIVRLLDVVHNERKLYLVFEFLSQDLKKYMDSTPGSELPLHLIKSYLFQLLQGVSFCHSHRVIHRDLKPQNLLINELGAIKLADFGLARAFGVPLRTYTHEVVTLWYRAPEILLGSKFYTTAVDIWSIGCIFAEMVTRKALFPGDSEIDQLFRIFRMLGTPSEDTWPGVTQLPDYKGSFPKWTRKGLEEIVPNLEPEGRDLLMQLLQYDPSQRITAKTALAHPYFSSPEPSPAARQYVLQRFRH

[22] = target: NUAK family SNF1-like kinase 1 (Homo sapiens) (UniProt O60285); conditions: Compound concentration 1000.0 nM
[23] = target: Tyrosine-protein kinase HCK (Homo sapiens) (UniProt P08631); conditions: Compound concentration 1000.0 nM
Chain of Tyrosine-protein kinase HCK (Homo sapiens) (P08631 2-526 limits assumed): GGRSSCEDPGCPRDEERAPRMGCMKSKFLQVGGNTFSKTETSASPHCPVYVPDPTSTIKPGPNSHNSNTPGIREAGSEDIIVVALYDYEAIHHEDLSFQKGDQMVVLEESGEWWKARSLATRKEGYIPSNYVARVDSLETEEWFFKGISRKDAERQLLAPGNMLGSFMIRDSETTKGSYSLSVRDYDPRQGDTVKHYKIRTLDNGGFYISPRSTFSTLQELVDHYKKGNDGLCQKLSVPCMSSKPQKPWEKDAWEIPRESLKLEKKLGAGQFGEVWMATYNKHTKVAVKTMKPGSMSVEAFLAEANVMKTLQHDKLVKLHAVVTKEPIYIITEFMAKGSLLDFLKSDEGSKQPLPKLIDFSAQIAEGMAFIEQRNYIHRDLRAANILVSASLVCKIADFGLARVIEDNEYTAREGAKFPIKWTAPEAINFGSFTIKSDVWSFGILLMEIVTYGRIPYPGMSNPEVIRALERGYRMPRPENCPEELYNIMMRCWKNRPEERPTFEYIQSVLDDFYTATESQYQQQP

[24] = target: Mitogen-activated protein kinase 6 (Homo sapiens) (UniProt Q16659); conditions: Compound concentration 1000.0 nM
[25] = target: Vascular endothelial growth factor receptor 1 (Homo sapiens) (UniProt P17948); conditions: Compound concentration 1000.0 nM
Chain of Vascular endothelial growth factor receptor 1 (Homo sapiens) (P17948 whole entry): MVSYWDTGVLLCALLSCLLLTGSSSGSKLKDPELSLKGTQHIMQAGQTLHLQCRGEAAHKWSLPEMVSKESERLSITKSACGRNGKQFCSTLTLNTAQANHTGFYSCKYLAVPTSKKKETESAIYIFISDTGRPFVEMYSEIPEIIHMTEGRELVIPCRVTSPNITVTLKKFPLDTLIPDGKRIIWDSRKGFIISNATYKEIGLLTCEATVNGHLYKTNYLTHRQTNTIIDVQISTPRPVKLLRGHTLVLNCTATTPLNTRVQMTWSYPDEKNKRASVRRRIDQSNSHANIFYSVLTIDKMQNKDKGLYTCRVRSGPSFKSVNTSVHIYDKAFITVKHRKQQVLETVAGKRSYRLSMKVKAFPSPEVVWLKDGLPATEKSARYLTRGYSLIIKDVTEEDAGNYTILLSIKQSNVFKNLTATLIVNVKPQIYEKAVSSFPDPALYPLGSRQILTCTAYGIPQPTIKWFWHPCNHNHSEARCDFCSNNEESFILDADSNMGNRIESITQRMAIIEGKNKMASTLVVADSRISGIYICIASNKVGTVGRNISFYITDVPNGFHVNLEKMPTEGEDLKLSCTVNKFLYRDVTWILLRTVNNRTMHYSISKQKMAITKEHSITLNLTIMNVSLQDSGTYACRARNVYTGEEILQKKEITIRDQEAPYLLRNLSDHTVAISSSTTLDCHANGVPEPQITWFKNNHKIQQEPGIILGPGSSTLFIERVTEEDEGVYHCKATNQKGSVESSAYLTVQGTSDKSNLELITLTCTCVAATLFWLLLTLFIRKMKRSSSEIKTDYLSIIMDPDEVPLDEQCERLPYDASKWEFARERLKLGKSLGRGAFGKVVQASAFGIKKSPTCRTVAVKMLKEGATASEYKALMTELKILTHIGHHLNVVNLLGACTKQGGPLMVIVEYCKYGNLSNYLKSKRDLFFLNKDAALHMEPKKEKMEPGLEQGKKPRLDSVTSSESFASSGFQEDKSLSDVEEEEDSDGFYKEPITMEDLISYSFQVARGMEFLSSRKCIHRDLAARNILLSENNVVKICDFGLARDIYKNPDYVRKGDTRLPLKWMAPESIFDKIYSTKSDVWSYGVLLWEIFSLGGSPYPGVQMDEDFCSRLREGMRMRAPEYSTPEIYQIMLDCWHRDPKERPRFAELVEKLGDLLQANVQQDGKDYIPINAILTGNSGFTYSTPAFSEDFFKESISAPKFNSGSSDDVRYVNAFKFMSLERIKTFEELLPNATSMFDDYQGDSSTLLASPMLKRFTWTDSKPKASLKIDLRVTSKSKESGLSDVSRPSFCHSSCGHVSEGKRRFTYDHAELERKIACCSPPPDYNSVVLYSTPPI

[26] = target: Serine/threonine-protein kinase PLK4 (Homo sapiens) (UniProt O00444); conditions: Compound concentration 1000.0 nM
[27] = tested on: Tyrosine-protein kinase ABL1 (Homo sapiens), P00519 [F317L]; conditions: Compound concentration 1000.0 nM
[28] = target: Ribosomal protein S6 kinase alpha-2 (Homo sapiens) (UniProt Q15349); conditions: Compound concentration 1000.0 nM
[29] = tested on: Fibroblast growth factor receptor 3 (Homo sapiens), P22607 [G697C]; conditions: Compound concentration 1000.0 nM
[30] = tested on: Tyrosine-protein kinase ABL1 (Homo sapiens), P00519 [Q252H]; conditions: Compound concentration 1000.0 nM
[31] = target: Aurora kinase B (Homo sapiens) (UniProt Q96GD4); conditions: Compound concentration 1000.0 nM
Chain of Aurora kinase B (Homo sapiens) (Q96GD4 whole entry): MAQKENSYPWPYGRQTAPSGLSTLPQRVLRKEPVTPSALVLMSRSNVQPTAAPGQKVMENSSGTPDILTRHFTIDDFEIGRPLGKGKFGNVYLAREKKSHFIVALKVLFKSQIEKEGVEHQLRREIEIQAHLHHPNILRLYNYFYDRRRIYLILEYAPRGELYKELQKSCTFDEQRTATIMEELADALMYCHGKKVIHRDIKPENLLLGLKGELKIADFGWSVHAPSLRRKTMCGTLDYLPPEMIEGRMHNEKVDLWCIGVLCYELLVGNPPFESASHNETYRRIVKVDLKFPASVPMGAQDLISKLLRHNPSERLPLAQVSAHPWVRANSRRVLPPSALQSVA

[32] = tested on: Epidermal growth factor receptor (Homo sapiens), P00533 [UNDEFINED MUTATION]; conditions: Compound concentration 1000.0 nM
[33] = target: Ephrin type-A receptor 8 (Homo sapiens) (UniProt P29322); conditions: Compound concentration 1000.0 nM
[34] = target: Interferon-induced, double-stranded RNA-activated protein kinase (Homo sapiens) (UniProt P19525); conditions: Compound concentration 1000.0 nM
[35] = target: 5-hydroxytryptamine receptor 3A (Homo sapiens) (UniProt P46098); conditions: Compound concentration 10.0 uM
[36] = target: Serine/threonine-protein kinase Nek6 (Homo sapiens) (UniProt Q9HC98); conditions: Compound concentration 1000.0 nM
[37] = target: Mitogen-activated protein kinase 11 (Homo sapiens) (UniProt Q15759); conditions: Compound concentration 1000.0 nM
Chain of Mitogen-activated protein kinase 11 (Homo sapiens) (Q15759 whole entry): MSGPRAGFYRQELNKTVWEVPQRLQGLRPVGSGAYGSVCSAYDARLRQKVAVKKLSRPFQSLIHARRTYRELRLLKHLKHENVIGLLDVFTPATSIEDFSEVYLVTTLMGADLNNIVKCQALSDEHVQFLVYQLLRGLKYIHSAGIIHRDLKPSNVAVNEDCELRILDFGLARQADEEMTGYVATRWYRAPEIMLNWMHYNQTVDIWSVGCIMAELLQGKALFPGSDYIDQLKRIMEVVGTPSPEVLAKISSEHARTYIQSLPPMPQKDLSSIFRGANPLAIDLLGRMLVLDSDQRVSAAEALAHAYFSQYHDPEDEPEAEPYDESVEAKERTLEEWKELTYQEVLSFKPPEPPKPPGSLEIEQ

For `CCC(=O)N[C@@H]1CC[C@H](C(=O)N(C)c2ccc(-c3nc4ccccc4o3)cc2)C1` [BI 99990], the residual activity [1] was 100%, the residual activity [2] was 100% and the residual activity [3] was 94%. For the same compound, the residual activity [4] was 100%, the residual activity [5] was 100% and the residual activity [6] was 100%. It also gave a residual activity [7] of 100%, an inhibition [8] of -1.16% and an inhibition [9] of 0.94%. For the same compound, the residual activity [10] was 45%, the residual activity [11] was 100% and the residual activity [12] was 100%. The residual activity [13] was 100%, the inhibition [14] was 19.4% and the residual activity [15] was 100%. The residual activity [16] was 100%, the residual activity [17] was 100% and the inhibition [18] was 1.65%. The residual activity [19] was 99%, the residual activity [20] was 91% and the residual activity [21] was 100%. For the same compound, the residual activity [22] was 100%, the residual activity [23] was 100% and the residual activity [24] was 100%. The residual activity [25] was 100%, the residual activity [26] was 100% and the residual activity [27] was 86%. The residual activity [28] was 100%, the residual activity [29] was 88% and the residual activity [30] was 87%. For the same compound, the residual activity [31] was 96%, the residual activity [32] was 62% and the residual activity [33] was 100%. The residual activity [34] was 100%, the inhibition [35] was -9.11% and the residual activity [36] was 99%. For the same compound, the residual activity [37] was 83%.

Work on `CCC(=O)N[C@H]1CC[C@@H](C(=O)N(C)c2ccc(-c3nc4ccccc4o3)cc2)C1` [BI 99179] yielded a residual activity [1] of 79%, a residual activity [2] of 96% and a residual activity [3] of 100%. For the same compound, the residual activity [4] was 87%, the residual activity [5] was 90% and the residual activity [6] was 86%. The residual activity [7] was 100%, the inhibition [8] was -2.15% and the inhibition [9] was 21.1%. For the same compound, the residual activity [10] was 54%, the residual activity [11] was 93% and the residual activity [12] was 97%. It also gave a residual activity [13] of 100%, an inhibition [14] of 22.1% and a residual activity [15] of 100%. The residual activity [16] was 100%, the residual activity [17] was 66% and the inhibition [18] was -8.17%. The residual activity [19] was 100%, the residual activity [20] was 77% and the residual activity [21] was 98%. For the same compound, the residual activity [22] was 100%, the residual activity [23] was 100% and the residual activity [24] was 100%. The residual activity [25] was 98%, the residual activity [26] was 78% and the residual activity [27] was 72%. It also gave a residual activity [28] of 100%, a residual activity [29] of 100% and a residual activity [30] of 78%. It also gave a residual activity [31] of 83%, a residual activity [32] of 78% and a residual activity [33] of 96%. The residual activity [34] was 100%, the inhibition [35] was -1.4% and the residual activity [36] was 85%. The residual activity [37] was 82%.
